In patent US8158621B2, “Methods of treating or preventing autoimmune diseases with 2,4-pyrimidinediamine compounds” (Rigel Pharmaceuticals, Inc., priority 2002, dated 2012) one finds IC50 data, which are given here for 70 compounds.

Some results are limits rather than exact numbers.

One assay relates to Human Jurkat T-cells (clone N). As to the kind of experiment: Jurkat T-cell activation (anti-TCR, CD69 upregulation). Format: cell-based.
Conditions: not given
The method, boiled down: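 Jurkat cells in RPMI + 5% FBS preincubated with compound 1 h at 37 °C, then stimulated with anti-TCR C305 at 500 ng/ml for 20 h. CD69 surface expression stained with anti-CD69-APC and read by flow cytometry; IC50 versus solvent-only control.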
The IC50 is the midpoint of a concentration-inhibition curve. `CNC(=O)COc1cccc(Nc2ncc(F)c(Nc3ccc(OC)c(OC)c3)n2)c1` [Compound R926733] had an IC50 of 3.59 µM.
On the same count and under the same terms, to `CNC(=O)COc1cccc(Nc2ncc(F)c(Nc3ccc(C)c(Cl)c3)n2)c1` [Compound R926839] belongs 2.48 µM.
Take `O=C(COc1cccc(Nc2ncc(F)c(Nc3ccc4c(c3)OCCO4)n2)c1)NC(CO)CO` [Compound R926784]: half-maximal inhibition (IC50) was put at 2.38 µM.
On the same count and under the same terms, to `CNC(=O)COc1cccc(Nc2ncc(F)c(Nc3ccc4c(c3)N(c3ccccn3)CC(C)(C)O4)n2)c1` [Compound R940337] belongs 1.82 µM; to `COC(=O)COc1cccc(Nc2ncc(F)c(Nc3ccc4c(c3)OCCO4)n2)c1` [Compound R945124], 6.16 µM; to `CNC(=O)COc1cccc(Nc2ncc(F)c(Nc3ccc(OC)c(O)c3)n2)c1` [Compound R926834], 2.57 µM.
For `CNC(=O)COc1cccc(Nc2ncc(F)c(Nc3ccc4c(c3)-n3ccnc3CO4)n2)c1` [Compound R935271], it took 0.858 µM to reach half-maximal inhibition (IC50).
Turning to `CCOC(=O)C1CCN(Cc2cccc(Nc3nc(Nc4cccc(OCC(=O)NC)c4)ncc3F)c2)CC1` [Compound R926905], the half-maximal inhibitory concentration (IC50) came to 6.49 µM.
The same measure, in the same setting: to `Cc1ccc(-c2ccccc2)cc1Nc1ncc(F)c(Nc2cc(-c3ccccc3)ccc2C)n1` [Compound R926402] belongs over 10 µM; to `CNC(=O)COc1cccc(Nc2ncc(F)c(Nc3cccc(C(C)=O)c3)n2)c1` [Compound R950371], 1.1 µM; to `N#CCOc1ccc(Nc2ncc(F)c(Nc3ccc4c(c3)OCCO4)n2)cc1` [Compound R926480], over 10 µM.
The same measure, in the same setting: as for `COC(=O)c1cnc(Nc2ccc(OCC(=O)N3CCCC3)cc2)nc1Nc1ccc(OCC(=O)N2CCCC2)cc1` [Compound R926559], the figure is 11.2 µM.
`CNC(=O)COc1cccc(Nc2ncc(F)c(Nc3ccc(C(C)(C)C)cc3)n2)c1` [Compound R926714] had an IC50 of 5.63 µM.
On the same count and under the same terms, as for `Cc1cc(Nc2nc(Nc3cccc(OCC(=O)N4CCNCC4)c3)ncc2F)cc(C)c1O` [Compound R945140], the figure is 2.09 µM; as for `Fc1cnc(Nc2ccc3c(c2)OCCO3)nc1Nc1ccc2cn[nH]c2c1` [Compound R935261], 2.18 µM; as for `CS(=O)(=O)Nc1cccc(Nc2ncc(F)c(Nc3cccc(NS(C)(=O)=O)c3)n2)c1` [Compound R950100], 5.67 µM.
Still for that read-out and setting: as for `O=C(O)Cc1cccc(Nc2ncc(F)c(Nc3cccc(CC(=O)O)c3)n2)c1` [Compound R935117], the figure is over 10 µM; as for `CCOC(=O)COc1cccc(Nc2nc(Nc3ccc4c(c3)OCCO4)ncc2F)c1` [Compound R926774], 12.7 µM.
The same measure, in the same setting: to `CNC(=O)COc1cccc(Nc2ncc(F)c(Nc3ccc4c(c3)C=CCO4)n2)c1` [Compound R950385] belongs 2.58 µM.
As for `OCCCn1ncc2ccc(Nc3ncc(F)c(Nc4ccc5oc(CO)cc5c4)n3)cc21` [Compound R935308], the 50% inhibitory concentration (IC50) turned out to be 1.27 µM.
Same read-out and setting: as for `OCCNc1cccc(Nc2ncc(F)c(Nc3ccc4c(c3)OCCO4)n2)c1` [Compound R950208], the figure is 1.77 µM; as for `CNC(=O)Cn1ncc2ccc(Nc3ncc(F)c(Nc4ccc5c(c4)OCCO5)n3)cc21` [Compound R935212], 4.68 µM; as for `Fc1cnc(Nc2ccc3c(c2)OCCCO3)nc1Nc1ccc2c(c1)OCCCO2` [Compound R935162], 3.38 µM.
Regarding `O=C(COc1ccc(Nc2nc(Nc3cccc(O)c3)ncc2Br)cc1)NCC1CC1` [Compound R925842], the IC50 is over 10 µM.
In the case of `Cc1nc(COc2cccc(Nc3nc(Nc4ccc(OCC(N)=O)cc4)ncc3F)c2)no1` [Compound R945133], the half-inhibitory concentration (IC50) was found to be 9.14 µM.
The compound `Oc1cccc(Nc2nc(Nc3ccc4cn[nH]c4c3)ncc2F)c1` [Compound R935191] displayed an IC50 of 2.94 µM.
Same read-out and setting: as for `COc1c(C)cc(Nc2nc(Nc3cccc(OCC(=O)N4CCNCC4)c3)ncc2F)cc1C` [Compound R945156], the figure is 2.29 µM; as for `CNC(=O)COc1cccc(Nc2ncc(F)c(Nc3ccc4c(c3)CNCC4)n2)c1` [Compound R926914], over 10 µM.
The same measure, in the same setting: as for `CNc1ncc(F)c(Nc2ccc3c(c2)OCCO3)n1` [Compound R950189], the figure is 22 µM; as for `CNC(=O)COc1cccc(Nc2ncc(F)c(Nc3cccc(N(CCO)CCO)c3)n2)c1` [Compound R950266], 3.66 µM; as for `CC1(C)Oc2cc(Nc3nc(Cl)ncc3F)cnc2NC1=O` [Compound R940344], 7.74 µM.
Same read-out and setting: to `CNC(=O)COc1cc(Nc2ncc(F)c(Nc3ccc(C)c(OCC(=O)NC)c3)n2)ccc1C` [Compound R926760] belongs 10.2 µM; to `O=C(O)COc1cccc(Nc2ncc(F)c(Nc3ccc(O)c(C(=O)O)c3)n2)c1` [Compound R950291], over 10 µM; to `COc1cc(-c2ccccc2)c(C)cc1Nc1ncc(C)c(Nc2cc(C)c(-c3ccccc3)cc2OC)n1` [Compound R935003], over 10 µM.
The compound `N#CCOc1ccc(Nc2ncc(F)c(Nc3ccc(OCC#N)cc3)n2)cc1` [Compound R945032] registered an IC50 of 15.2 µM.
Regarding `N#CCOc1ccc(Nc2nc(Nc3ccc4c(c3)OCCO4)ncc2F)cc1` [Compound R945172], half-maximal inhibition (IC50) required 3.13 µM.
The same measure, in the same setting: as for `COC(=O)c1cc2cc(Nc3ncc(F)c(Nc4ccc(OCc5nc(C)no5)cc4)n3)ccc2o1` [Compound R935146], the figure is over 10 µM; as for `CCOC(=O)c1cnc(Nc2cccc(OCC(=O)NC)c2)nc1Nc1cc(OC)cc(OC)c1` [Compound R926801], over 10 µM; as for `CCOC(=O)COc1ccc(Nc2ncc(F)c(Nc3cccc(O)c3)n2)cc1` [Compound R926395], 17.7 µM.
The same measure, in the same setting: as for `CNC(=O)CNc1cccc(Nc2ncc(F)c(Nc3cccc(O)c3)n2)c1` [Compound R950218], the figure is 3.43 µM.
The same measure, in the same setting: to `CNC(=O)CCn1ncc2ccc(Nc3ncc(F)c(Nc4cccc(O)c4)n3)cc21` [Compound R935294] belongs 8.16 µM.
As for `OB(O)c1cccc(Nc2ncc(F)c(Nc3ccc4c(c3)OCCO4)n2)c1` [Compound R926837], the IC50 was over 10 µM.
The same measure, in the same setting: to `COC(=O)COc1cccc(Nc2ncc(F)c(Nc3cc(C)c(O)c(C)c3)n2)c1` [Compound R945139] belongs 13.9 µM.
Take `CCOC(=O)CCn1ncc2cc(Nc3ncc(F)c(Nc4ccc5c(c4)OCCO5)n3)ccc21` [Compound R935301]: the IC50 is 2.32 µM.
`NC(=O)COc1cccc(Nc2ncc(F)c(Nc3ccc4c(c3)OCCO4)n2)c1` [Compound R926747] came in with an IC50 of 3.28 µM.

Still in this assay, the particulars now being: Homo sapiens.
Regarding `Cc1ccc(Nc2ncc(F)c(Nc3ccc(C)c([N+](=O)[O-])c3)n2)cc1[N+](=O)[O-]` [Compound R950144], the concentration for half-maximal inhibition (IC50) is over 10 µM.
Compound `O=[N+]([O-])c1ccc(F)c(Nc2ncc(F)c(Nc3cc([N+](=O)[O-])ccc3F)n2)c1` [Compound R950147] registered an IC50 of 14.8 µM.

Still in this assay, the particulars now being: Homo sapiens, Jurkat.
As to `CCOc1ccc(Nc2ncc(F)c(Nc3ccc(OCC)c(N)c3)n2)cc1N` [Compound R950139], 5.45 µM corresponded to half-maximal inhibition (IC50).
`Oc1cccc(Nc2ncc(F)c(Nc3cccc(C4=NN(c5ccccc5)CO4)c3)n2)c1` [Compound R926866]: the IC50 was over 10 µM.
`CCOC(=O)c1nc(Nc2ccc3c(c2)OCCO3)nc(Nc2ccc3c(c2)OCCO3)c1N` [Compound R925857]: the IC50 is over 10 µM.
For the compound `Cc1onc(-c2ccccc2)c1Nc1ncc(F)c(Nc2ccc3c(c2)OCCO3)n1` [Compound R926743], the IC50 is over 10 µM.
On to `COC(=O)c1cc2cc(Nc3ncc(F)c(Nc4cccc(N)c4)n3)ccc2o1` [Compound R950162], for which inhibition was half-maximal at 8.92 µM (IC50).
Same read-out and setting: to `CC(C)c1ccc(O)cc1Nc1ncc(F)c(Nc2cc(O)ccc2C(C)C)n1` [Compound R935077] belongs over 10 µM; to `Oc1ccc(Nc2ncc(F)c(Nc3ccc(O)c(Cl)c3)n2)cc1Cl` [Compound R926675], 2.37 µM.
The same measure, in the same setting: as for `Oc1cccc(Nc2ncc(F)c(NCc3csc4ccccc34)n2)c1` [Compound R945146], the figure is over 10 µM.
The same measure, in the same setting: to `CCOc1ccc(Nc2ncc(F)c(Nc3ccc(OCC)cc3)n2)cc1` [Compound R070790, N2,N4-bis(4-ethoxyphenyl)-5-fluoro-2,4-pyrimidinediamine] belongs over 10 µM; to `Cc1cc(Nc2ncc(F)c(Nc3ccc4c(c3)OCCO4)n2)c(C)cc1O` [Compound R926792], 9.97 µM; to `OCC(O)COc1ccc(Nc2ncc(F)c(Nc3cccc(O)c3)n2)cc1` (stereo not shown) [Compound R935180], 3.57 µM.
On to `Fc1cnc(Nc2cccc(-c3ccccc3)c2)nc1Nc1cccc(-c2ccccc2)c1` [Compound R926403], for which the half-inhibitory concentration (IC50) is over 10 µM.
Compound `Oc1cccc(Nc2nc(Cl)c(Cl)c(Nc3cccc(O)c3)n2)c1` [Compound R926591] had an IC50 of over 10 µM.
Same read-out and setting: to `CCOC(=O)c1cc2cc(Nc3ncc(F)c(Nc4cccc(O)c4)n3)ccc2[nH]1` [Compound R926615] belongs 1.87 µM; to `CN(C)CCOc1cccc(Nc2ncc(F)c(Nc3ccc4c(c3)OCCO4)n2)c1` [Compound R926771], 3.47 µM; to `OB(O)c1cccc(Nc2nc(Nc3cccc(O)c3)ncc2F)c1` [Compound R926755], 7.36 µM.
For the compound `CCOc1ccc(Nc2ncc(F)c(Nc3ccc4c(c3)OCCO4)n2)cc1` [Compound R926211], the concentration for half-maximal inhibition (IC50) was found to be 15 µM.
Compound `COc1ccc(Nc2ncc(F)c(Nc3ccc(OC)cc3)n2)cc1` [Compound R926017] came in with a 50% inhibitory concentration (IC50) of 20.8 µM.
Still for that read-out and setting: to `Fc1cnc(NCc2ccccc2)nc1NCc1ccccc1` [Compound R925772] belongs over 10 µM; to `c1ccc(-c2cc(Nc3ccc4c(c3)OCCO4)nc(Nc3ccc4c(c3)OCCO4)n2)cc1` [Compound R925811], over 10 µM; to `O=C(NCCO)c1cc2cc(Nc3ncc(F)c(Nc4ccc5c(c4)OCCO5)n3)ccc2o1` [Compound R926498], 5.73 µM.
On the same count and under the same terms, as for `Oc1ccc(-c2cnc(Nc3ccc4c(c3)OCCO4)nc2Nc2ccc3c(c2)OCCO3)cc1` [Compound R925816], the figure is 4.66 µM; as for `Nc1cc(Nc2ccnc(Nc3ccc(Nc4ccccc4)c(N)c3)n2)ccc1Nc1ccccc1` [Compound R950123], over 10 µM.
